In PubChem BioAssay (NCI) one finds TGI data, which are given here for 14 compounds.

Test systems include A498 renal; A549 NSCLC; CCRF-CEM leukemia; COLO 205 colon; EKVX NSCLC; HCC-2998 colon; HCT-15 colon; HL-60(TB) leukemia; HT29 colon; MOLT-4 leukemia; NCI-H23 lung; OVCAR-8 ovarian; RPMI-8226 leukemia; SK-MEL-5 melanoma; SNB-19 CNS; SR leukemia; MCF7 breast; SNB-75 CNS; MDA-MB-435.
Test in all cases: NCI anticancer screen, dose series, 48 h

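Following 48 hours of exposure in 96-well plates, responses at five concentrations were used to interpolate endpoints linearly. Definition used: TGI = concentration required for complete inhibition of growth.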

On to `CCOc1ccc(C2=NN(CC)C(=O)C(C3C(=O)N(c4ccccc4)N=C3C)C2)cc1` (stereo unspecified), for which the TGI in the assay on A498 renal, in the assay with A549 NSCLC, in the assay on CCRF-CEM leukemia, with COLO 205 colon, in the assay with EKVX NSCLC and with HCC-2998 colon was greater than 100 µM throughout. Also, the TGI with HCT-15 colon, in the assay with HL-60(TB) leukemia, in the assay with HT29 colon, in the assay with MOLT-4 leukemia, in the assay with NCI-H23 lung and in the assay on OVCAR-8 ovarian was greater than 100 µM each time. The TGI with RPMI-8226 leukemia, in the assay on SK-MEL-5 melanoma and with SNB-19 CNS was greater than 100 µM in each case.
As for `C=CCNC(=S)NNC(=O)c1c(C)nc2sccn12`, the TGI in the assay on A549 NSCLC, with CCRF-CEM leukemia, in the assay with COLO 205 colon, with EKVX NSCLC, in the assay with HCC-2998 colon and in the assay on HCT-15 colon was greater than 100 µM each time. The TGI in the assay on HL-60(TB) leukemia, in the assay with HT29 colon, in the assay with MOLT-4 leukemia, with NCI-H23 lung, with OVCAR-8 ovarian and in the assay on SK-MEL-5 melanoma was greater than 100 µM throughout. The TGI with SNB-19 CNS and with SR leukemia was greater than 100 µM each time.
Regarding `COc1ccc(OC)c2c(C(C)=O)cccc12`, the TGI with A498 renal, with A549 NSCLC, in the assay with CCRF-CEM leukemia, with COLO 205 colon, in the assay with EKVX NSCLC and in the assay with HCC-2998 colon was greater than 100 µM each time. The TGI in the assay with HCT-15 colon, with HL-60(TB) leukemia, in the assay on MCF7 breast, in the assay with MOLT-4 leukemia, in the assay with NCI-H23 lung and in the assay on OVCAR-8 ovarian was greater than 100 µM throughout. Moreover, the TGI with RPMI-8226 leukemia, with SK-MEL-5 melanoma, in the assay with SNB-19 CNS and with SR leukemia was greater than 100 µM each time.
In the case of `COc1cc2c(oc(=O)c3c4occc4cc(OC)c23)c2cccc(O)c12`, the TGI in the assay on A498 renal, in the assay on A549 NSCLC, in the assay with CCRF-CEM leukemia, in the assay with COLO 205 colon, in the assay on EKVX NSCLC and in the assay with HCC-2998 colon was greater than 100 µM in each case. Besides, the TGI in the assay on HCT-15 colon, in the assay with HL-60(TB) leukemia, with HT29 colon, in the assay on MOLT-4 leukemia, in the assay with NCI-H23 lung and in the assay on OVCAR-8 ovarian was greater than 100 µM throughout. Moreover, the TGI with RPMI-8226 leukemia, in the assay on SK-MEL-5 melanoma, in the assay on SNB-19 CNS and in the assay on SNB-75 CNS was greater than 100 µM throughout.
Regarding `CN(C)C(=O)C(F)(F)C(c1ccccc1Br)C1C(=O)N(C)C(=O)N(C)C1=O` (stereo unspecified), the TGI with A498 renal, in the assay on A549 NSCLC, with CCRF-CEM leukemia, with COLO 205 colon, in the assay with EKVX NSCLC and with HCC-2998 colon was greater than 100 µM in each case. Further, the TGI in the assay with HCT-15 colon, with MCF7 breast, in the assay with MDA-MB-435, in the assay on NCI-H23 lung, in the assay on OVCAR-8 ovarian and with RPMI-8226 leukemia was greater than 100 µM each time. Besides, the TGI with SK-MEL-5 melanoma, in the assay with SNB-19 CNS and in the assay on SNB-75 CNS was greater than 100 µM throughout.
Turning to `CNC(=S)N/N=C/C(C)=N/NC(=S)NC`, the TGI in the assay with A498 renal, in the assay on A549 NSCLC, in the assay with COLO 205 colon, in the assay with EKVX NSCLC, in the assay with HCC-2998 colon and in the assay on HCT-15 colon was greater than 100 µM throughout. For the same compound, the TGI in the assay with MOLT-4 leukemia, in the assay with NCI-H23 lung, in the assay on RPMI-8226 leukemia, in the assay with SK-MEL-5 melanoma and in the assay on SNB-19 CNS was greater than 100 µM in each case.
Regarding `Cc1c(C#N)c2nnn(-c3cccc(Cl)c3)c(=O)n2c1-c1ccccc1`, the TGI with A498 renal is 13 µM; with A549 NSCLC, greater than 100 µM; in the assay with CCRF-CEM leukemia, greater than 100 µM; with COLO 205 colon it was 2.35 µM; with EKVX NSCLC it was greater than 100 µM; with HCC-2998 colon, 18.2 µM. Further, the TGI is greater than 100 µM in the assay on HCT-15 colon; greater than 100 µM in the assay with HL-60(TB) leukemia; 9.18 µM in the assay with HT29 colon; 35.4 µM in the assay with MCF7 breast; greater than 100 µM in the assay on NCI-H23 lung; greater than 100 µM with OVCAR-8 ovarian. The TGI in the assay on RPMI-8226 leukemia is 2.61 µM; in the assay on SK-MEL-5 melanoma it was 19.2 µM; with SNB-19 CNS, greater than 100 µM; in the assay with SNB-75 CNS, 7.76 µM; in the assay on SR leukemia it was 2.69 µM.
Regarding `Cc1ccc(C)c2c1C1CCCCC3(OCCCO3)C21O` (stereo unspecified), the TGI in the assay with A498 renal, in the assay with A549 NSCLC, in the assay with CCRF-CEM leukemia, with COLO 205 colon, in the assay on HCC-2998 colon and with HCT-15 colon was greater than 100 µM in each case. For the same compound, the TGI with HL-60(TB) leukemia, in the assay with HT29 colon, in the assay with MOLT-4 leukemia, in the assay on NCI-H23 lung, with OVCAR-8 ovarian and in the assay on RPMI-8226 leukemia was greater than 100 µM throughout. Besides, the TGI in the assay with SK-MEL-5 melanoma, with SNB-19 CNS and with SNB-75 CNS was greater than 100 µM in each case.
Consider `OC12CCC3(OC4CCCCO4)c4ccccc4C3C1c1ccccc12` (stereo unspecified), for which the TGI with A549 NSCLC, with CCRF-CEM leukemia, in the assay on COLO 205 colon, in the assay on EKVX NSCLC, in the assay with HCT-15 colon and with HL-60(TB) leukemia was greater than 100 µM in each case. Moreover, the TGI in the assay with HT29 colon, with MOLT-4 leukemia, with NCI-H23 lung, in the assay with OVCAR-8 ovarian, in the assay on RPMI-8226 leukemia and in the assay with SK-MEL-5 melanoma was greater than 100 µM each time. Further, the TGI in the assay on SNB-19 CNS, with SNB-75 CNS and with SR leukemia was greater than 100 µM each time.
For `Cc1ccc(/C=c2\cc3oc(=O)c4cccc(c4-3)c2=O)cc1`, the TGI is greater than 100 µM in the assay on A498 renal; 68.2 µM in the assay with CCRF-CEM leukemia; greater than 100 µM with COLO 205 colon; greater than 100 µM with EKVX NSCLC; greater than 100 µM with HCC-2998 colon; greater than 100 µM in the assay on HCT-15 colon. The TGI with HL-60(TB) leukemia, in the assay with HT29 colon, in the assay with MCF7 breast, in the assay with MDA-MB-435, in the assay with NCI-H23 lung and in the assay with OVCAR-8 ovarian was greater than 100 µM throughout. Moreover, the TGI in the assay with RPMI-8226 leukemia, in the assay with SNB-19 CNS, in the assay on SNB-75 CNS and with SR leukemia was greater than 100 µM throughout.
Turning to `COC(=O)c1ccccc1CC1Cc2c(C)ccc(C)c2C1=O` (stereo unspecified), the TGI is 71 µM in the assay on A498 renal; greater than 100 µM in the assay with A549 NSCLC; 52.8 µM with CCRF-CEM leukemia; 34.3 µM in the assay with COLO 205 colon; greater than 100 µM with EKVX NSCLC; greater than 100 µM in the assay on HCC-2998 colon. The TGI in the assay with HCT-15 colon is greater than 100 µM; in the assay with HL-60(TB) leukemia, 55.6 µM; in the assay on HT29 colon it was 61.6 µM; with MCF7 breast, 30 µM; in the assay with MDA-MB-435, 59.7 µM; in the assay with MOLT-4 leukemia, 45.6 µM. Moreover, the TGI in the assay with NCI-H23 lung is 55.2 µM; with OVCAR-8 ovarian, greater than 100 µM; in the assay with SK-MEL-5 melanoma, 34 µM; in the assay on SNB-19 CNS, greater than 100 µM; in the assay on SNB-75 CNS it was greater than 100 µM.
In the case of `C/C(=C\C(=O)Nc1ccc2n[nH]nc2c1)Nc1ccc2n[nH]nc2c1`, the TGI in the assay on A498 renal, with A549 NSCLC, in the assay with CCRF-CEM leukemia, in the assay on COLO 205 colon, in the assay with EKVX NSCLC and in the assay on HCC-2998 colon was greater than 100 µM throughout. The TGI in the assay on HCT-15 colon, in the assay on HL-60(TB) leukemia, in the assay on HT29 colon, with MOLT-4 leukemia, with NCI-H23 lung and in the assay on OVCAR-8 ovarian was greater than 100 µM throughout. Also, the TGI in the assay on RPMI-8226 leukemia, in the assay on SK-MEL-5 melanoma, in the assay with SNB-19 CNS, in the assay on SNB-75 CNS and in the assay on SR leukemia was greater than 100 µM in each case.
For `Nc1nc(SCc2ccccc2Cl)c2ncn(C3OC(CO)C(O)C3O)c2n1` (stereo unspecified), the TGI with A498 renal, in the assay with A549 NSCLC, with CCRF-CEM leukemia, in the assay with COLO 205 colon, in the assay with HCC-2998 colon and in the assay on HCT-15 colon was greater than 100 µM each time. Besides, the TGI with HL-60(TB) leukemia, in the assay with HT29 colon, in the assay on MOLT-4 leukemia, in the assay with NCI-H23 lung, with OVCAR-8 ovarian and in the assay on RPMI-8226 leukemia was greater than 100 µM each time. In addition, the TGI in the assay with SK-MEL-5 melanoma was greater than 100 µM; in the assay with SNB-19 CNS, greater than 100 µM; in the assay on SNB-75 CNS it was 98.2 µM; in the assay on SR leukemia, greater than 100 µM.
Consider `CN(C)C(=O)C(F)(F)C(c1ccccc1)C1C(=O)N(C)C(=O)N(C)C1=O` (stereo unspecified), for which the TGI with A498 renal, with A549 NSCLC, with CCRF-CEM leukemia, in the assay with COLO 205 colon, in the assay with EKVX NSCLC and in the assay on HCC-2998 colon was greater than 100 µM throughout. Moreover, the TGI in the assay on HCT-15 colon, in the assay with MCF7 breast, in the assay on MDA-MB-435, in the assay on MOLT-4 leukemia, in the assay on NCI-H23 lung and with OVCAR-8 ovarian was greater than 100 µM in each case. The TGI in the assay with RPMI-8226 leukemia, in the assay with SK-MEL-5 melanoma, with SNB-19 CNS and with SNB-75 CNS was greater than 100 µM each time.
